Reference: patent US5783568A, “Methods for treating cancer and other cell proliferative diseases” (Sugen, Inc., priority 1994, dated 1998)
Entries after “also recorded” stand apart in the source; their conditions may differ. Where two headings read alike, the source gives them in different places. Each block holds one molecule with its values, some of them ahead of it.

Tests used:
heparin binding proteins = details: cited from earlier work
FGFR2 (bek) [1] = assay: Tyrosine phosphorylation of FGFR2 in mutant (HSPG-deficient) CHO-pgsD-677 cells; type: cell-based, human
Method: (§1) Cells were lysed and the receptor was immunoprecipitated with anti-FGFR2 antibodies. Samples were then analyzed by SDS-PAGE, transferred to nitrocellulose membranes, and tyrosine-phosphorylated proteins were detected by immunoblotting with anti-phosphotyrosine antibodies.
(§2) Wild-type CHO cells (CHO-K1), as well as heparin sulfate-deficient mutant cells (CHO-pgsD-677) which were kindly provided by Prof. J. Esko (Esko, 1991), were cultured in F-12 medium containing 7.5% FBS, 1% Ampicillin/Streptomycin and 1% glutamine. Both CHO cell lines were co-transfected with the wild-type human FGFR2 (bek) DNA in the expression vector pMJ30 (Dionne et al., 1990) (40 μg/10 cm dish) and the pSVneo resistant gene (0.5 mg/10 cm dish), using the calcium phosphate method (Chen and Okayama, 1987). Geneticin (1 mg/ml) resistant clones were screened for expression of the receptor by immunoprecipitation and immunoblotting analysis using anti-FGFR2 antibodies.
(§3) Wild-type and mutant CHO cells were starved overnight in F-12 medium containing 0.5% FBS, and stimulated with either 0.1 nM aFGF, 50 nM heparin, or both, for 5 min at 37° C. Cells were lysed, immunoprecipitated with anti-FGFR2 antibodies and analyzed by immunoblotting with anti-phosphotyrosine (anti-PTyr) antibodies.

bFGF = details: cited from earlier work
aFGF = target: T1, aFGF (Homo sapiens, UniProt P05230); assay: Isothermal titration calorimetry, binding to aFGF; details: ITC
T1 construct: made in house; host or cells: E. coli
T1 sequence (P05230 whole entry): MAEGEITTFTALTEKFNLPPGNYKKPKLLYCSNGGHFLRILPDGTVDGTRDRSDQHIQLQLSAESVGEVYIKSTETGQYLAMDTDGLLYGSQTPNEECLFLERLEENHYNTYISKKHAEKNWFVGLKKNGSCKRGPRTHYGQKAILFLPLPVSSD

FGFR2 (bek) [2] = assay: Tyrosine phosphorylation of FGFR2 in wild-type CHO-K1 cells; type: cell-based, human; details: excess of sucrose octasulfate (0.5, 50 or 500 μM) with aFGF and heparin
Method: as §1, §2, §3

K-FGF = details: cited from earlier work
tumor cells = details: Wellstein et al, 1991; cited from earlier work
gastric mucosa = details: cited from earlier work
EGF = details: cited from earlier work
VEGF = details: cell culture; Kendall & Thomas, 1993; cited from earlier work

Molecule: Cc1ccc(C(=O)Nc2ccc(S(=O)(=O)O)c3cc(S(=O)(=O)O)cc(S(=O)(=O)O)c23)cc1NC(=O)c1cccc(NC(=O)Nc2cccc(C(=O)Nc3cc(C(=O)Nc4ccc(S(=O)(=O)O)c5cc(S(=O)(=O)O)cc(S(=O)(=O)O)c45)ccc3C)c2)c1 [Suramin]
effect on heparin binding proteins (heparin binding proteins): inducing microagglutination of the growth factor; also recorded: inhibit a variety of heparin binding proteins

AH of aFGF binding to heparin / heparin analog (aFGF; heparins: means ± SD of two experiments): -5.8 ± 1.2 kcal mol^-1
Kd (aFGF; single class of binding sites, heparins: means ± SD of two experiments, read-out: KD of aFGF binding to heparin / heparin analog): 3.4 ± 1.34 µM
Kd (aFGF; KD of aFGF binding to sucrose octasulfate): 3.4 µM
Molecule: O=S(=O)(O)OC[C@H]1O[C@@](COS(=O)(=O)O)(O[C@H]2O[C@H](COS(=O)(=O)O)[C@@H](OS(=O)(=O)O)[C@H](OS(=O)(=O)O)[C@H]2OS(=O)(=O)O)[C@@H](OS(=O)(=O)O)[C@@H]1OS(=O)(=O)O [sucrose octasulfate]
effect on aFGF/heparin-induced receptor activation, mutant CHO cells (FGFR2 (bek) [1]; excess of sucrose octasulfate (0.5, 50 or 500 μM) with 0.1 nM aFGF and 50 nM heparin): inhibitory; also recorded: can be inhibited
aFGF/heparin-induced dimerization and activation of FGFR (FGFR2 (bek) [1]; statement of Section 5.1 referring to Section 7.2.8): effectively inhibits aFGF/heparin-induced dimerization and activation of FGFR
activation of FGFR by aFGF with sucrose octasulfate in place of heparin, mutant CHO cells (FGFR2 (bek) [1]; sucrose octasulfate plus aFGF, no heparin): does not enable aFGF to activate FGFR in the mutant (HSPG-deficient) CHO cells
protection of bFGF from acid degradation (bFGF): protect the biologic activity of bFGF against acid degradation
effect on aFGF/heparin-induced receptor activation, CHO cells that express HSPG (FGFR2 (bek) [2]): inhibitory

Molecule: Pentosan polysulfate
K-FGF-induced growth (K-FGF; Wellstein et al., 1991): inhibited the K-FGF- induced growth
FGF-induced angiogenesis and tumor growth (K-FGF): inhibited the FGF-induced angiogenesis and tumor growth
growth of tumor cells in vitro (tumor cells): selective inhibition of growth of tumor cells in vitro

Molecule: sucrose octakis (hydrogen sulfate) aluminum complex [sucralfate]
ulcer healing / wound healing (gastric mucosa; in vivo): accelerates ulcer healing without reducing gastric acid; also recorded: elevates the level of available endogenous bFGF in the ulcer bed and stimulates angiogenesis and wound healing
epithelial proliferation (gastric mucosa; through stimulation of gastric mucosal EGF and PDGF receptors): enhances epithelial proliferation
protection of bFGF from acid degradation (bFGF): protects bFGF from degradation by acid
affinity to bFGF (bFGF; compared with heparin): higher affinity binding to bFGF than heparin
EGF binding (EGF): binds EGF in a pH-dependent manner

B1: soluble Flt-1: soluble Flt-1, one of the receptors for VEGF (protein, UniProt P17948 27-758, looked up)
extracellular domain: SKLKDPELSLKGTQHIMQAGQTLHLQCRGEAAHKWSLPEMVSKESERLSITKSACGRNGKQFCSTLTLNTAQANHTGFYSCKYLAVPTSKKKETESAIYIFISDTGRPFVEMYSEIPEIIHMTEGRELVIPCRVTSPNITVTLKKFPLDTLIPDGKRIIWDSRKGFIISNATYKEIGLLTCEATVNGHLYKTNYLTHRQTNTIIDVQISTPRPVKLLRGHTLVLNCTATTPLNTRVQMTWSYPDEKNKRASVRRRIDQSNSHANIFYSVLTIDKMQNKDKGLYTCRVRSGPSFKSVNTSVHIYDKAFITVKHRKQQVLETVAGKRSYRLSMKVKAFPSPEVVWLKDGLPATEKSARYLTRGYSLIIKDVTEEDAGNYTILLSIKQSNVFKNLTATLIVNVKPQIYEKAVSSFPDPALYPLGSRQILTCTAYGIPQPTIKWFWHPCNHNHSEARCDFCSNNEESFILDADSNMGNRIESITQRMAIIEGKNKMASTLVVADSRISGIYICIASNKVGTVGRNISFYITDVPNGFHVNLEKMPTEGEDLKLSCTVNKFLYRDVTWILLRTVNNRTMHYSISKQKMAITKEHSITLNLTIMNVSLQDSGTYACRARNVYTGEEILQKKEITIRDQEAPYLLRNLSDHTVAISSSTTLDCHANGVPEPQITWFKNNHKIQQEPGIILGPGSSTLFIERVTEEDEGVYHCKATNQKGSVESSAYLTVQGTSDKSNLE
modifications: extracellular domain
notes: soluble Flt-1, one of the receptors for VEGF
VEGF activity (VEGF): can bind and inhibit the activity of VEGF in cell culture
